In paper PMC9653409, “Generative deep learning enables the discovery of a potent and selective RIPK1 inhibitor” (Nature Communications, 2022):
Where “and” joins values, the source holds several entries; their conditions need not be identical. Equal entries are not always repeated.

How the values were obtained:
IL-1β = test: TNFα-induced SIRS mouse model: serum IL-1β (ELISA); format: in vivo, C57BL/6 female mice; details: 40 mg/kg i.p.
Description: The body temperatures of the mice were continuously monitored until 6 h after TNFα administration. At 6 h after TNFα injection, four mice in each group were killed at random, and the serums, heart, liver, spleen, lung, and kidney tissues were collected for analysis.
In the TNFα-induced SIRS model, at 6 h after TNFα injection, four mice in each group were killed at random, and the serums were collected, the serum concentrations of IL-1β and IL-6 were measured using ELISA kits (Neobioscience Technology) according to manufacturer’s instructions. […] The supernatant was collected by sequential centrifugation at 500 × g for 10 min and 3000 × g for 10 min. The concentrations of cytokines TNFα, IL-6, and IL-1β were measured using ELISA kits (Neobioscience Technology).

DSS-induced IBD = DSS-induced IBD mouse model: colon H&E and S100a9 immunohistochemistry; format: in vivo, C57BL/6 female mice; details: 40 mg/kg i.p., day 7
Description: The heart, liver, spleen, lung, kidney and colon tissues were fixed directly in 4% paraformaldehyde (24 h), embedded in paraffin, and stained with H&E following standard procedures. All images were acquired using a Pannoramic MIDI scanner. The colon tissues were fixed in 4% paraformaldehyde for 24 h. The tissues were sliced to a thickness of […], deparaffinized with xylene, and rehydrated with graded ethanol. The tissue sections were then placed in a repair box filled with citric acid (pH 6.0) antigen retrieval buffer for antigen retrieval in a microwave oven followed by the quenching of endogenous peroxidase activity in 3% hydrogen peroxide. The sections were incubated overnight at 4 °C with primary antibody (S100a9, 73425, CST), which was prepared in PBS (pH 7.4) according to the manufacturer’s instructions. The sections were then washed three times with PBS, incubated for 1 h with the appropriate secondary antibodies, and staining with freshly prepared DAB color developing solution. Subsequently, the sections were counterstained with hematoxylin and mounted in non-aqueous mounting medium. All images were acquired using a Pannoramic MIDI scanner.

pRIPK1, pRIPK3, pMLKL = test: TNFα-induced SIRS mouse model: liver western blot; format: in vivo, C57BL/6 female mice; details: 40 mg/kg i.p.
Description: The liver in the SIRS model and the colon in the IBD model were harvested, homogenated and sonicated in RIPA lysis buffer.
The cell proteins or tissue proteins were separated in a polyacrylamide gel and transferred to a methanol-activated polyvinylidene fluoride membrane. The membrane was blocked for 2 h in Tris-buffered saline plus Tween-20 containing 5% milk and then immunoblotted sequentially with primary and secondary antibodies. Detection was performed with an ECL chemiluminescence kit (Abbkine). The antibodies used were human RIPK1 antibody (R&D, 334640, 1:1000), mouse RIPK1 antibody (Affinity, DF2642, 1:1000), human phospho-RIP (Ser166) rabbit mAb (Cell Signaling Technologies, 65746, 1:1000), mouse phospho-RIP (Ser321) rabbit mAb (Cell Signaling Technologies, 38662, 1:1000), human RIPK3 (B-2) antibody (Santa Cruz, sc-374639, 1:250), mouse RIPK3 antibody (Abcam, ab62344, 1:1000), human anti-RIP3 (phospho S227) antibody (Abcam, ab209384, 1:2000), mouse anti-RIP3 (phospho T231 + S232) antibody (Abcam, ab205421, 1:500), anti-MLKL (58–70) antibody (Sigma, M6697, 1:250), human anti-MLKL (phospho S358) antibody (Abcam, ab187091, 1:1000), mouse anti-MLKL (phospho S345) antibody (Abcam, ab196436, 1:1000), and β-actin (Proteintech, 66009-1-Ig, 1:1000).

RIPK4 = RIPK4 (Homo sapiens, UniProt P57078); test: Kinase IC50 assay (Eurofins); format: biochemical
RIPK4, sequence (P57078 whole entry): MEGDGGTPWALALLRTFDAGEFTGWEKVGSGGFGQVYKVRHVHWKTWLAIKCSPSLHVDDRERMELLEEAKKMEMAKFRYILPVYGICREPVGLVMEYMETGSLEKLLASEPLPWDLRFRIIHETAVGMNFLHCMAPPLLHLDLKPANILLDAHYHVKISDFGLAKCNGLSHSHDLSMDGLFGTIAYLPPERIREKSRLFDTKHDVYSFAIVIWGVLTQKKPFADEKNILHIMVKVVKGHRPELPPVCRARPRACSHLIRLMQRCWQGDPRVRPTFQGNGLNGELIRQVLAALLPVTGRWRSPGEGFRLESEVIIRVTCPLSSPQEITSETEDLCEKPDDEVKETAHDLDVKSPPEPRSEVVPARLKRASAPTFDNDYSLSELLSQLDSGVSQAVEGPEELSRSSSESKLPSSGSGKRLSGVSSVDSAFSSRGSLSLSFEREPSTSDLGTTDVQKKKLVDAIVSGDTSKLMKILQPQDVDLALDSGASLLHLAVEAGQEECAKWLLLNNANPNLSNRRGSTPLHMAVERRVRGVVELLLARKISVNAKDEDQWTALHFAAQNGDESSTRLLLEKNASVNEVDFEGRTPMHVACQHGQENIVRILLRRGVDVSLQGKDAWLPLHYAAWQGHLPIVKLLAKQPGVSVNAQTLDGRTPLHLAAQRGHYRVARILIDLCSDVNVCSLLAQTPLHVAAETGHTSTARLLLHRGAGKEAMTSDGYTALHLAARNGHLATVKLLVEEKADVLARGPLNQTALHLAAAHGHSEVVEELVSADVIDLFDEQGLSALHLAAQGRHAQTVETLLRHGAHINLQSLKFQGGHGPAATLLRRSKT
Description: (§1) In vitro kinase activity assays were conducted through the Kinase Profiling Services provided by Eurofins (Eurofins, France). The protocol for the RIPK1 assay is briefly described as follows (Protocols for other kinases are very similar and can be found in http://www.eurofins.com/pharmadiscovery). RIPK1 kinase was incubated with the test compound in assay buffer containing 8 mM MOPS (pH 7.0), 0.2 mM EDTA, 250 μM […], 10 mM magnesium acetate, and 10 μM [γ-33P]-ATP for 15 min at room temperature. The reaction was initiated by the addition of the Mg/ATP mixture. After incubation for 40 min at room temperature, and the reaction was stopped by the addition of 3% phosphoric acid. A 10 μL portion of the reaction mixture was then spotted onto a P30 filter mat and washed four times for 4 min in 0.425% phosphoric acid and once in methanol prior to drying and scintillation counting.

RIPK3 = RIPK3 (Homo sapiens, UniProt Q9Y572); test: Kinase IC50 assay (Eurofins); format: biochemical
RIPK3, sequence (Q9Y572 whole entry): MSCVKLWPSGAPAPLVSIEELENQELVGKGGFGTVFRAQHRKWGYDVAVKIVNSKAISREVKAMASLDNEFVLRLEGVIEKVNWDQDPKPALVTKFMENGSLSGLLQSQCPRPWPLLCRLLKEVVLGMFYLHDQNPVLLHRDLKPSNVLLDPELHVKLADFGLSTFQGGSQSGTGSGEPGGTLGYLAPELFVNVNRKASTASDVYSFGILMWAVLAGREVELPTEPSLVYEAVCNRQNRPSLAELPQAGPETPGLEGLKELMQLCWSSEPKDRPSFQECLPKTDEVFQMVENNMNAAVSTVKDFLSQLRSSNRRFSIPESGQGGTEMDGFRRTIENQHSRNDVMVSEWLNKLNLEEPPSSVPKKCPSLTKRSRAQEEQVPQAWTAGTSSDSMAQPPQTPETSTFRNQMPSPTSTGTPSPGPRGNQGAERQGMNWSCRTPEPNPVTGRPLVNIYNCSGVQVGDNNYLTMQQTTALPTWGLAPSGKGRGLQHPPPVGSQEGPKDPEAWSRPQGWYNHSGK
Description: as §1

[1] = tested on: RIPK1 knockout HT29 cells; test: TSZ treatment of RIPK1 knockout HT29 cells (CCK8); format: cell-based; details: Homo sapiens, HT-29, read-out: Cell Viability (%) Average
Description: (§2) Cell necroptosis protection assays were performed in 96-well cell culture plates. Cells were plated in each well and cultured at 37 °C overnight. […] The cell survival rate was determined using a CCK8 cell viability assay kit and CLARIOstar (v5.61). […] All experiments were performed at least two times, and each EC50 value was expressed as mean ± standard deviation (SD).
The lentiCRISPRv2 vector targeting RIPK1 (sgRNA, 5’- […]-3’) was constructed by the Azenta company. HEK 293 T cells were transfected with lentiCRISPRv2 targeting RIPK1 and empty vector using Hieff Trans^TM Liposomal Transfection Reagent (Yeasen), respectively. […] The concentrated viruses were added to HT29 cells along with 8 μg/mL of polybrene (Yeasen) to enhance transfection efficiency. The infection assay was repeated in the next day under the same conditions. Finally, HT29 cells were screened with 3 μg/mL puromycin. Western blot analysis was used to confirm the RIPK1 deletion.

L929 cells = test: TZ-induced L929 cell necroptosis model (CCK8); format: cell-based; details: Mus musculus
Description: as §2

CC(C)C(=O)Nc1nc2cc(-c3ccc4c(c3)c(C(=O)NC(C)c3ccccc3)cn4C)ccn2n1 (centres unmarked) [RI-962]
concentration of IL-1β (IL-1β; 6 h after TNFα): remarkably reduced
IL-1β (IL-1β; serum 6 h after TNFα, animals 1-4): 95.48 pg/mL and 91.16 pg/mL and 77.29 pg/mL and 76.39 pg/mL
infiltration by S100a9-positive cells (DSS-induced IBD): no infiltration by S100a9-positive cells was observed
tissue damage in the colons (histopathology) (DSS-induced IBD): substantially decreased tissue damage
level of pRIPK1 in liver (western blot) (pRIPK1, pRIPK3, pMLKL): substantially reduced the level of phosphorated RIPK1 (pRIPK1)
IC50 (RIPK4): > 10 µM
IC50 (RIPK3): > 10 µM
viability at 0.000169 µM ([1]; 0.000169 μM + TSZ): 89.4%
viability at 0.000508 µM ([1]; 0.000508 μM + TSZ): 103%
viability at 0.001524 µM ([1]; 0.001524 μM + TSZ): 87.5%
viability at 0.004572 µM ([1]; 0.004572 μM + TSZ): 87.3%
viability at 0.013717 µM ([1]; 0.013717 μM + TSZ): 90.8%
viability at 0.041152 µM ([1]; 0.041152 μM + TSZ): 90.1%
viability at 0.123457 µM ([1]; 0.123457 μM + TSZ): 94.4%
viability at 0.37037 µM ([1]; 0.370370 μM + TSZ): 104%
viability at 1.11111 µM ([1]; 1.111111 μM + TSZ): 97.9%
viability at 56 pM (L929 cells; L929, 0.000056 μM): 19.1%
viability at 0.000169 µM (L929 cells; L929, 0.000169 μM): 22.9%
viability at 0.000508 µM (L929 cells; L929, 0.000508 μM): 24.8%
viability at 0.001524 µM (L929 cells; L929, 0.001524 μM): 35.2%
viability at 0.004572 µM (L929 cells; L929, 0.004572 μM): 62.2%
viability at 0.013717 µM (L929 cells; L929, 0.013717 μM): 83.1%
viability at 0.041152 µM (L929 cells; L929, 0.041152 μM): 89.4%
viability at 0.123457 µM (L929 cells; L929, 0.123457 μM): 105%
viability at 0.37037 µM (L929 cells; L929, 0.370370 μM): 98.5%
viability at 1.11111 µM (L929 cells; L929, 1.111111 μM): 103%
viability at 3.33333 µM (L929 cells; L929, 3.333333 μM): 99.1%
viability at 10 µM (L929 cells; L929, 10.000000 μM): 91.6%
EC50 (L929 cells; L929 treated with TZ, 24 h): 0.0042 µM
